The values below come from patent US12029713B2, “Compositions and methods for the treatment of brain injury” (THE CHILDREN'S HOSPITAL OF PHILADELPHIA, priority 2013, dated 2024).

Data set [1] deals with fluid percussion injury mice. The data set is described as follows: Conditioned fear response (CFR) after fluid percussion injury, GTA oral gavage. The class given is in vivo, mouse. Particulars: 5 mg/kg oral gavage for 5 days, CFR on day 7 (FIG. 5). Here is the method: A fluid percussion injury assay was performed. Briefly, a craniotomy was performed on anesthetized mice using a 3 mm trephine and a Luer-Hoc needle hub attached to the skull and capped. The following day, a fluid percussion injury device was employed to deliver a pulse of saline through the hub at a pressure between 1.4-2.14 atm, producing a mild to moderate percussion injury. Sham animals received all anesthesia and surgical procedures except for the fluid pulse.
Mice were allowed to recover for one day. Mice were then treated with 5 mg/kg of glyceryl triacetate (GTA) via oral gavage for 5 days. The conditioned fear response (CFR) assay was performed on day 7.

For data set [2] the following is noted: within one hour of administration; cited from earlier work.

For the compound `CC(=O)OCC(COC(C)=O)OC(C)=O` [GTA, glyceryl triacetate], the “fear response (CFR) compared to mice receiving the brain injury without treatment” value in data set [1] is given as “statistically superior”. In addition, in data set [2], the “increase of acetate levels in the brain” value is listed as “over 15 fold”.
